In patent US8771665B2 (Cocrystal Discovery, Inc., priority 2010, dated 2014) one finds IC50 data, which are given here for 21 compounds.

A word on the pIC50: it is the IC50 on a negative log10 scale, so that one unit is a factor of ten. Lower therefore signals a high IC50.

pIC50: −log10 of the molar value.

In the assay the target is T1, HCV1b NS5B polymerase delta 21 (Hepatitis C virus genotype 1b, UniProt P26663).
T1 construct: purified HCV1b NS5B polymerase delta 21
Put plainly: RNA-Dependent RNA HCV NS5B (Polymerase) Assay and IC50 Determination. In kind it is biochemical. As to the method:
RNA-Dependent RNA HCV NS5B (Polymerase) Assay and IC50 Determination
In vitro RNA-dependent RNA polymerase activity was determined in a reaction mixture (50 μL) containing 50 mM Tris-HCl, pH 7.5, 5 mM MgCl2, 1 mM dithiothreitol, 0.5% Triton® X-100, 10 μM of UTP, 0.1-0.5 μCi of α-^32P UTP (Perkin Elmer Life Sciences), 1 μg of polyA:U16 (Midland Oligo), and 0.6 μg of purified HCV1b NS5B polymerase delta 21. Different concentrations of compounds were added to the reaction mixtures. The reaction was carried out at RT (23° C.) for 60 min and then stopped by the addition of 100 μL of 50 mM EDTA. The reaction mixtures were filtered through either a DE81 membrane or a positively charged nylon membrane, and the membranes were then extensively washed with 30 mM sodium citrate, pH 7.0 and 300 mM NaCl. The radiolabeled RNA products were quantitated using a Storm™ Phosphorlmager™ (GE Life Sciences). IC50 values were calculated using GraFit 6 and GraphPad Prism 5 from triplicate assays.

T1 sequence (P26663 2420-2989): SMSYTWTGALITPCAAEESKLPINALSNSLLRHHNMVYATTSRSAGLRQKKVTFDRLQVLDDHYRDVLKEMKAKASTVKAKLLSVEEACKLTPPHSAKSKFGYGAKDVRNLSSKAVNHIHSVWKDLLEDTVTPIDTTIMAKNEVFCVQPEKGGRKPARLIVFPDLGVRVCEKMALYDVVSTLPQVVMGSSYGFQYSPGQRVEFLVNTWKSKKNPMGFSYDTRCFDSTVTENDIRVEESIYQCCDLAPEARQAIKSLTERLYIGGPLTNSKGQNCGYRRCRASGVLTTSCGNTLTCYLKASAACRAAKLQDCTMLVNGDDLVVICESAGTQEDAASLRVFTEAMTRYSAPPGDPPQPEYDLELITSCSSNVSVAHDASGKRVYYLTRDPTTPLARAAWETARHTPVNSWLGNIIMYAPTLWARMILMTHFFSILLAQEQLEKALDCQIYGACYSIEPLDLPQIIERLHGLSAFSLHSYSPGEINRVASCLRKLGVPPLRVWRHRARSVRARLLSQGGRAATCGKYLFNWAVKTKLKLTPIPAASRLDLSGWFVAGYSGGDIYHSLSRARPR

Turning to `CCOC(C#Cc1cc(C2=C(C3CCC(C)CC3)CN(CC)CC2)c(C(=O)O)s1)OCC` (stereo not drawn) [Example 033, 5-(3,3-Diethoxy-prop-1-ynyl)-3-[1-ethyl-5-(4-methyl-cyclohexyl)-1,2,3,6-tetrahydro-pyridin-4-yl]-thiophene-2-carboxylic acid], the pIC50 was 5.00 to 5.52.

For the compound `CCN1CCC(c2cc(C#CCOC)sc2C(=O)O)=C(C2CCC(C)CC2)C1` (stereo not drawn) [Example 034, 3-[1-Ethyl-5-(4-methyl-cyclohexyl)-1,2,3,6-tetrahydro-pyridin-4-yl]-5-(3-methoxy-prop-1-ynyl)-thiophene-2-carboxylic acid], the negative logarithm of the IC50 (pIC50) is > 5.52. Next, `CCN1CCC(c2cc(-c3ccc(C(=O)O)cc3)sc2C(=O)O)=C(C2CCC(C)CC2)C1` (stereo not drawn) [Example 035, 5-(4-Carboxy-phenyl)-3-[1-ethyl-5-(4-methyl-cyclohexyl)-1,2,3,6-tetrahydro-pyridin-4-yl]-thiophene-2-carboxylic acid]: > 5.52; `Cc1ccc(S(=O)(=O)N2CCC(c3cc(-c4ccccc4)sc3C(=O)O)=C(C3CCC(C)CC3)C2)cc1` (stereo not drawn) [Example 036, 3-[5-(4-Methyl-cyclohexyl)-1-(toluene-4-sulfonyl)-1,2,3,6-tetrahydro-pyridin-4-yl]-5-phenyl-thiophene-2-carboxylic acid]: < 5.00; `CC1CCC(C2=C(c3cc(-c4ccccc4)sc3C(=O)O)CCN(C(=O)OC(C)(C)C)C2)CC1` (stereo not drawn) [Example 037, 4-(2-Carboxy-5-phenyl-thiophen-3-yl)-5-(4-methyl-cyclohexyl)-3,6-dihydro-2H-pyridine-1-carboxylic acid tert-butyl ester]: < 5.00.

For `CCOC(=O)N1CCC(c2cc(-c3ccccc3)sc2C(=O)O)=C(C2CCC(C)CC2)C1` (stereo not drawn) [Example 038, 4-(2-Carboxy-5-phenyl-thiophen-3-yl)-5-(4-methyl-cyclohexyl)-3,6-dihydro-2H-pyridine-1-carboxylic acid ethyl ester], the negative-log IC50 (pIC50) was < 5.00. As to `CC1CCC(C2=C(c3cc(-c4ccccc4)sc3C(=O)O)CCN(S(C)(=O)=O)C2)CC1` (stereo not drawn) [Example 039, 3-[1-Methanesulfonyl-5-(4-methyl-cyclohexyl)-1,2,3,6-tetrahydro-pyridin-4-yl]-5-phenyl-thiophene-2-carboxylic acid], the pIC50 is < 5.00. As to `CC1CCC(C2=C(c3cc(-c4ccccc4)sc3C(=O)O)CCNC2)CC1` (stereo not drawn) [Example 040, 3-[5-(4-Methyl-cyclohexyl)-1,2,3,6-tetrahydro-pyridin-4-yl]-5-phenyl-thiophene-2-carboxylic acid], the pIC50 is > 5.52.

Turning to `CC1CCC(C2=C(c3cc(-c4ccccc4)sc3C(=O)O)CN(C)CC2)CC1` (stereo not drawn) [Example 041, 3-[1-Methyl-4-(4-methyl-cyclohexyl)-1,2,5,6-tetrahydro-pyridin-3-yl]-5-phenyl-thiophene-2-carboxylic acid], the pIC50 is > 5.52. Turning to `CC1CCC(C2=C(c3cc(-c4ccc(NC(=O)c5ccccn5)cc4)sc3C(=O)O)CCN(C)C2)CC1` (stereo not drawn) [Example 042, 3-[1-Methyl-5-(4-methyl-cyclohexyl)-1,2,3,6-tetrahydro-pyridin-4-yl]-5-{4-[(pyridine-2-carbonyl)-amino]-phenyl}-thiophene-2-carboxylic acid], the negative logarithm of the IC50 (pIC50) was > 5.52. `CC1CCC(C2=C(c3cc(-c4ccccc4)sc3C(=O)O)CCN(Cc3ccccc3)C2)CC1` (stereo not drawn) [Example 043, 3-[1-Benzyl-5-(4-methyl-cyclohexyl)-1,2,3,6-tetrahydro-pyridin-4-yl]-5-phenyl-thiophene-2-carboxylic acid] had a negative logarithm of the IC50 (pIC50) of 5.00 to 5.52. Consider `CCN1CCC(c2cc(-c3ccccc3)sc2C(=O)O)=C(C2CCC(C)CC2)C1` (stereo not drawn) [Example 044, 3-[1-Ethyl-5-(4-methyl-cyclohexyl)-1,2,3,6-tetrahydro-pyridin-4-yl]-5-phenyl-thiophene-2-carboxylic acid], for which the negative-log IC50 (pIC50) is > 5.52. As for `CC1CCC(C2=C(c3cc(-c4ccccc4)sc3C(=O)O)CCN(C(=O)c3cnccn3)C2)CC1` (stereo not drawn) [Example 045, 3-[5-(4-Methyl-cyclohexyl)-1-(pyrazine-2-carbonyl)-1,2,3,6-tetrahydro-pyridin-4-yl]-5-phenyl-thiophene-2-carboxylic acid], the figure is > 5.52; as for `CN1CCC(c2cc(C#CC(C)(C)C)sc2C(=O)O)=C([C@H]2CC[C@H](C)CC2)C1` [Example 046, 5-(3,3-Dimethyl-but-1-ynyl)-3-[1-methyl-5-(4-methyl-cyclohexyl)-1,2,3,6-tetrahydro-pyridin-4-yl]-thiophene-2-carboxylic acid], > 5.52; as for `CN1CCC(c2cc(-c3ccc(NC(=O)c4cscn4)cc3)sc2C(=O)O)=C([C@H]2CC[C@H](C)CC2)C1` [Example 047, 3-[1-Methyl-5-(4-methyl-cyclohexyl)-1,2,3,6-tetrahydro-pyridin-4-yl]-5-{4-[(thiazole-4-carbonyl)-amino]-phenyl}-thiophene-2-carboxylic acid], > 5.52. On to `CCN1CCC(c2cc(-c3ccc(NC(=O)c4csc(C)n4)cc3)sc2C(=O)O)=C(C2CCC(C)CC2)C1` (stereo not drawn) [Example 048, 3-[1-Ethyl-5-(4-methyl-cyclohexyl)-1,2,3,6-tetrahydro-pyridin-4-yl]-5-{4-[(2-methyl-thiazole-4-carbonyl)-amino]-phenyl}-thiophene-2-carboxylic acid], for which the pIC50 was > 5.52. Regarding `CCN1CCC(c2cc(-c3ccc(NC(=O)c4ccsc4)cc3)sc2C(=O)O)=C(C2CCC(C)CC2)C1` (stereo not drawn) [Example 049, 3-[1-Ethyl-5-(4-methyl-cyclohexyl)-1,2,3,6-tetrahydro-pyridin-4-yl]-5-{4-[(thiophene-3-carbonyl)-amino]-phenyl}-thiophene-2-carboxylic acid], the negative-log IC50 (pIC50) is > 5.52. With `CCN1CCC(c2cc(-c3ccc(NC(=O)c4cncs4)cc3)sc2C(=O)O)=C(C2CCC(C)CC2)C1` (stereo not drawn) [Example 050, 3-[1-Ethyl-5-(4-methyl-cyclohexyl)-1,2,3,6-tetrahydro-pyridin-4-yl]-5-{4-[(thiazole-5-carbonyl)-amino]-phenyl}-thiophene-2-carboxylic acid], the negative logarithm of the IC50 (pIC50) is 5.00 to 5.52. For `CCN1CCC(c2cc(-c3ccc(NC(=O)c4cc(C)n(C)n4)cc3)sc2C(=O)O)=C(C2CCC(C)CC2)C1` (stereo not drawn) [Example 051, 5-{4-[(1,5-Dimethyl-1H-pyrazole-3-carbonyl)-amino]-phenyl}-3-[1-ethyl-5-(4-methyl-cyclohexyl)-1,2,3,6-tetrahydro-pyridin-4-yl]-thiophene-2-carboxylic acid], the pIC50 is > 5.52. As for `CCN1CCC(c2cc(-c3ccc(NC(=O)c4cocn4)cc3)sc2C(=O)O)=C(C2CCC(C)CC2)C1` (stereo not drawn) [Example 052, 3-[1-Ethyl-5-(4-methyl-cyclohexyl)-1,2,3,6-tetrahydro-pyridin-4-yl]-5-{4-[(oxazole-4-carbonyl)-amino]-phenyl}-thiophene-2-carboxylic acid], the negative-log IC50 (pIC50) was > 5.52. As for `CCN1CCC(c2cc(-c3ccc(NC(=O)c4cc(C)on4)cc3)sc2C(=O)O)=C(C2CCC(C)CC2)C1` (stereo not drawn) [Example 053, 3-[1-Ethyl-5-(4-methyl-cyclohexyl)-1,2,3,6-tetrahydro-pyridin-4-yl]-5-{4-[(5-methyl-isoxazole-3-carbonyl)-amino]-phenyl}-thiophene-2-carboxylic acid], the pIC50 is 5.00 to 5.52.
